Laboratory results as given in patent publication US8802597B2, “Herbicidal pyrimidines” (E I du Pont de Nemours and Company, priority 2003, dated 2014).

Tests used:
Assay type in all cases: in vivo
[1] = test system: barnyardgrass (Echinochloa crus-galli); experiment: Test B flooded paddy test; details: Flood, scale 0 to 100
Method in brief: (§1)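 Plants were grown to the 2-leaf stage before treatment, then kept in a greenhouse for 13 to 15 days. Injury was rated visually against untreated controls on a 0 to 100 scale, where 0 is no effect and 100 is complete control.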

rice (Oryza sativa) = experiment: Test B flooded paddy test; details: Flood, scale 0 to 100
Method in brief: as §1

[2] = test system: umbrella sedge (Cyperus difformis); experiment: Test B flooded paddy test; details: Flood, scale 0 to 100
Method in brief: as §1

[3] = test system: duck salad (Heteranthera limosa); experiment: Test B flooded paddy test; details: Flood, scale 0 to 100
Method in brief: as §1

corn (Zea mays) = experiment: Test B pre/postemergence; details: for Corn plant response rating: Postemergence; for Plant response rating, Corn: Preemergence
Excerpt: (§2) Seeds selected from barnyardgrass (Echinochloa crus-galli), Surinam grass (Brachiaria decumbens), cocklebur (Xanthium strumarium), corn (Zea mays), crabgrass (Digitaria sanguinalis), giant foxtail (Setaria faberii), lambsquarters (Chenopodium album), morningglory (Ipomoea coccinea), pigweed (Amaranthus retroflexus), velvetleaf (Abutilon theophrasti), and wheat (Triticum aestivum) were planted and treated preemergence with test chemicals formulated in a non-phytotoxic solvent mixture which included a surfactant.
(§3) At the same time, plants selected from these crop and weed species and also blackgrass (Alopecurus myosuroides) and wild oat (Avena fatua) were treated with postemergence applications of test chemicals formulated in the same manner. Plants ranged in height from 2 to 18 cm (1- to 4-leaf stage) for postemergence treatments. Plant species in the flooded paddy test consisted of rice (Oryza sativa), umbrella sedge (Cyperus difformis), duck salad (Heteranthera limosa) and barnyardgrass (Echinochloa crus-galli) grown to the 2-leaf stage for testing. Treated plants and controls were maintained in a greenhouse for 13 to 15 days, after which time all species were compared to controls and visually evaluated. Plant response ratings, summarized in Table B, are based on a scale of 0 to 100 where 0 is no effect and 100 is complete control. A dash (-) response means no test result.

[4] = test system: velvetleaf (Abutilon theophrasti); experiment: Test B pre/postemergence; details: for Velvetleaf plant response rating: Postemergence; for Plant response rating, Velvetleaf: Preemergence
Excerpt: as §2, §3

[5] = test system: barnyardgrass (Echinochloa crus-galli); experiment: Test B pre/postemergence; details: for Barnyardgrass plant response rating: Postemergence; for Plant response rating, Barnyardgrass: Preemergence
Excerpt: as §2, §3

[6] = test system: lambsquarters (Chenopodium album); experiment: Test B pre/postemergence; details: for Lambsquarters plant response rating: Postemergence; for Plant response rating, Lambsquarters: Preemergence
Excerpt: as §2, §3

[7] = test system: giant foxtail (Setaria faberii); experiment: Test B pre/postemergence; details: for Foxtail, Giant plant response rating: Postemergence; for Plant response rating, Foxtail, Giant: Preemergence
Excerpt: as §2, §3

[8] = test system: wheat (Triticum aestivum); experiment: Test B pre/postemergence; details: for Wheat plant response rating: Postemergence; for Plant response rating, Wheat: Preemergence
Excerpt: as §2, §3

[9] = test system: cocklebur (Xanthium strumarium); experiment: Test B pre/postemergence; details: for Cocklebur plant response rating: Postemergence; for Plant response rating, Cocklebur: Preemergence
Excerpt: as §2, §3

[10] = test system: Surinam grass (Brachiaria decumbens); experiment: Test B pre/postemergence; details: for Surinam Grass plant response rating: Postemergence; for Plant response rating, Surinam Grass: Preemergence
Excerpt: as §2, §3

[11] = test system: crabgrass (Digitaria sanguinalis); experiment: Test B pre/postemergence; details: for Crabgrass plant response rating: Postemergence; for Plant response rating, Crabgrass: Preemergence
Excerpt: as §2, §3

[12] = test system: morningglory (Ipomoea coccinea); experiment: Test B pre/postemergence; details: for Morningglory plant response rating: Postemergence; for Plant response rating, Morningglory: Preemergence
Excerpt: as §2, §3

[13] = test system: pigweed (Amaranthus retroflexus); experiment: Test B pre/postemergence; details: for Pigweed plant response rating: Postemergence; for Plant response rating, Pigweed: Preemergence
Excerpt: as §2, §3

[14] = test system: velvetleaf (Abutilon theophrasti); experiment: Test A pre/postemergence
Method in brief: (§4)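 Seeds sown in loam–sand blend received a preemergence directed soil spray of test chemical in non-phytotoxic solvent with surfactant; same-formulation postemergence spray given concurrently to plants 2–10 cm tall at 1- to 2-leaf stage. Greenhouse ~ten days, then visual injury rating versus untreated controls, 0 (no effect) to 100 (complete control).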

[15] = test system: barnyardgrass (Echinochloa crus-galli); experiment: Test A pre/postemergence
Method in brief: as §4

[16] = test system: giant foxtail (Setaria faberi); experiment: Test A pre/postemergence
Method in brief: as §4

[17] = test system: redroot pigweed (Amaranthus retroflexus); experiment: Test A pre/postemergence
Method in brief: as §4

[18] = test system: crabgrass (Digitaria sanguinalis); experiment: Test A pre/postemergence
Method in brief: as §4

[19] = test system: morningglory (Ipomoea spp.); experiment: Test A pre/postemergence
Method in brief: as §4

wild oat (Avena fatua) = experiment: Test B postemergence; details: scale 0 to 100 (0 no effect, 100 complete control)
Method in brief: (§5)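 Following sowing, compounds in a surfactant-bearing non-phytotoxic solvent were applied preemergence; emerged plants 2 to 18 cm high got postemergence treatment concurrently. Evaluation: 13 to 15 days later, greenhouse, 0–100 visual scale.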

[20] = test system: blackgrass (Alopecurus myosuroides); experiment: Test B postemergence; details: scale 0 to 100 (0 no effect, 100 complete control)
Method in brief: as §5

[21] = 62 g ai/ha, scale 0 to 100 (0 no effect, 100 complete control)
[22] = 125 g ai/ha, scale 0 to 100 (0 no effect, 100 complete control)
[23] = 62 g ai/ha, scale 0 to 100, 0 no effect, 100 complete control
[24] = Postemergence, 125 g ai/ha, 0 to 100 scale (0 no effect, 100 complete control)
[25] = Postemergence, 500 g ai/ha, 0 to 100 scale (0 no effect, 100 complete control)
[26] = Preemergence, 125 g ai/ha, 0 to 100 scale where 0 is no effect and 100 is complete control, approximately ten days
[27] = Preemergence, 500 g ai/ha, 0 to 100 scale where 0 is no effect and 100 is complete control, approximately ten days

COC(=O)c1nc(-c2ccc(F)cc2)nc(N)c1Br [Compound 92]
Plant response rating, Barnyardgrass ([1]; 125 g ai/ha): 0 | Plant response rating, Barnyardgrass ([1]; 500 g ai/ha): 0 | Plant response rating, Rice (rice (Oryza sativa); 125 g ai/ha): 0 | Plant response rating, Rice (rice (Oryza sativa); 500 g ai/ha): 0 | Plant response rating, Sedge, Umbrella ([2]; 125 g ai/ha): 80 | Plant response rating, Sedge, Umbrella ([2]; 500 g ai/ha): 90 | Plant response rating, Ducksalad ([3]; 125 g ai/ha): 80 | Plant response rating, Ducksalad ([3]; 500 g ai/ha): 90 | Corn plant response rating (corn (Zea mays); [21]): 0 | Corn plant response rating (corn (Zea mays); [22]): 0 | Plant response rating, Corn (corn (Zea mays); [23]): 0 | Plant response rating, Corn (corn (Zea mays); [22]): 0 | Velvetleaf plant response rating [4, 21]: 50 | Velvetleaf plant response rating [4, 22]: 60 | Plant response rating, Velvetleaf [4, 23]: 50 | Plant response rating, Velvetleaf [4, 22]: 70 | Barnyardgrass plant response rating [5, 21]: 10 | Barnyardgrass plant response rating [5, 22]: 10 | Plant response rating, Barnyardgrass [5, 23]: 10 | Plant response rating, Barnyardgrass [5, 22]: 30 | Lambsquarters plant response rating [6, 21]: 90 | Lambsquarters plant response rating [6, 22]: 90 | Plant response rating, Lambsquarters [6, 23]: 50 | Plant response rating, Lambsquarters [6, 22]: 80 | Foxtail, Giant plant response rating [7, 21]: 20 | Foxtail, Giant plant response rating [7, 22]: 30 | Plant response rating, Foxtail, Giant [7, 23]: 0 | Plant response rating, Foxtail, Giant [7, 22]: 10 | Wheat plant response rating [8, 21]: 0 | Wheat plant response rating [8, 22]: 0 | Plant response rating, Wheat [8, 23]: 0 | Plant response rating, Wheat [8, 22]: 30 | Cocklebur plant response rating [9, 21]: 60 | Cocklebur plant response rating [9, 22]: 80 | Plant response rating, Cocklebur [9, 23]: 40 | Plant response rating, Cocklebur [9, 22]: 50 | Surinam Grass plant response rating [10, 21]: 0 | Surinam Grass plant response rating [10, 22]: 10 | Plant response rating, Surinam Grass [10, 23]: 0 | Plant response rating, Surinam Grass [10, 22]: 0 | Crabgrass plant response rating [11, 21]: 0 | Crabgrass plant response rating [11, 22]: 20 | Plant response rating, Crabgrass [11, 23]: 0 | Plant response rating, Crabgrass [11, 22]: 10 | Morningglory plant response rating [12, 21]: 50 | Morningglory plant response rating [12, 22]: 60 | Plant response rating, Morningglory [12, 23]: 0 | Plant response rating, Morningglory [12, 22]: 0 | Pigweed plant response rating [13, 21]: 70 | Pigweed plant response rating [13, 22]: 80 | Plant response rating, Pigweed [13, 23]: 40 | Plant response rating, Pigweed [13, 22]: 80 | Plant response rating, Velvetleaf [14, 24]: 45 | Plant response rating, Velvetleaf [14, 25]: 70 | Plant response rating, Velvetleaf [14, 26]: 10 | Plant response rating, Velvetleaf [14, 27]: 45 | Plant response rating, Barnyardgrass [15, 24]: 0 | Plant response rating, Barnyardgrass [15, 25]: 0 | Plant response rating, Barnyardgrass [15, 26]: 0 | Plant response rating, Barnyardgrass [15, 27]: 0 | Plant response rating, Foxtail, Giant [16, 24]: 0 | Plant response rating, Foxtail, Giant [16, 25]: 0 | Plant response rating, Foxtail, Giant [16, 26]: 0 | Plant response rating, Foxtail, Giant [16, 27]: 0 | Plant response rating, Pigweed [17, 24]: 35 | Plant response rating, Pigweed [17, 25]: 70 | Plant response rating, Pigweed [17, 26]: 15 | Plant response rating, Pigweed [17, 27]: 45 | Plant response rating, Crabgrass [18, 24]: 0 | Plant response rating, Crabgrass [18, 25]: 5 | Plant response rating, Crabgrass [18, 26]: 0 | Plant response rating, Crabgrass [18, 27]: 0 | Plant response rating, Morningglory [19, 24]: 45 | Plant response rating, Morningglory [19, 25]: 75 | Plant response rating, Morningglory [19, 26]: 0 | Plant response rating, Morningglory [19, 27]: 0 | Oat, Wild plant response rating (wild oat (Avena fatua); 62 g ai/ha): 0 | Oat, Wild plant response rating (wild oat (Avena fatua); 125 g ai/ha): 0 | Blackgrass plant response rating ([20]; 62 g ai/ha): 20 | Blackgrass plant response rating ([20]; 125 g ai/ha): 20
